These results are taken from ChEMBL document CHEMBL1147026, “Synthesis of pseudopeptides based L-tryptophan as a potential antimicrobial agent” (Bioorg Med Chem Lett, 2007).

Values after ≈ are worked out from the molar mass of the structure shown.

Data set [1] concerns Staphylococcus aureus. As to the kind of experiment: Antibacterial activity against methicillin-susceptible Staphylococcus aureus ATCC 25923 after 24 hrs by two fold dilution method. The format is functional. The following applies: ATCC 25923, 24 h.
A further data set deals with Bacillus subtilis. The data set is described as follows: Antimicrobial activity against Bacillus subtilis after 24 hrs by two fold dilution method. The format is functional.
For the next data set, the system named is Pseudomonas aeruginosa. As to the kind of experiment: Antimicrobial activity against Pseudomonas aeruginosa ATCC 27853 after 24 hrs by two fold dilution method. Conditions: ATCC 27853, 24 h. The format is functional.
Data set [2] deals with Staphylococcus aureus. As to the kind of experiment: Antibacterial activity against methicillin-resistant Staphylococcus aureus CMAH 0515 after 24 hrs by two fold dilution method. The format is functional.
In data set [3] the test system is Staphylococcus aureus. The data set is described as follows: Antibacterial activity against methicillin-resistant Staphylococcus aureus CMAH 0430 after 24 hrs by two fold dilution method. The format is functional.
The next data set deals with Klebsiella aerogenes. As to the kind of experiment: Antibacterial activity against Enterobacter aerogenes CMCC(B) 45103 after 24 hrs by two fold dilution method. The format is functional.
The subject of data set [4] is Staphylococcus aureus. As to the kind of experiment: Antibacterial activity against methicillin-resistant Staphylococcus aureus CMAH 0504 after 24 hrs by two fold dilution method. The format is functional.
The next data set concerns Micrococcus luteus. The data set is described as follows: Antimicrobial activity against Micrococcus luteus CMCC(B) 28001 after 24 hrs by two fold dilution method. The format is functional.
For a further data set, the system named is Escherichia coli. The data set is described as follows: Antimicrobial activity against Escherichia coli ATCC 25922 after 24 hrs by two fold dilution method. The format is functional. Conditions: ATCC 25922, 24 h.
For another data set, the system named is Proteus vulgaris. As to the kind of experiment: Antimicrobial activity against Proteus vulgaris CMCC(B) 49001 after 24 hrs by two fold dilution method. The format is functional.
The nature of data set [5]: Toxicity in human erythrocytes assessed as haemolysis upto 4000 ug/mL. Conditions: read-out: Activity. The format is cell-based, Erythrocyte.
In data set [6] the test system is Candida albicans. As to the kind of experiment: Antifungal activity against Candida albicans CMAH 0507 after 48 to 72 hrs by broth microdilution method. The format is functional. Background: Dilution methods test growth across graded concentrations, often in twofold steps.
Another data set relates to Aspergillus sp. The data set is described as follows: Antifungal activity against Aspergillus sp. after 48 to 72 hrs by broth microdilution method. Conditions: Aspergillus sp. The format is functional.
Data set [7] concerns Candida albicans. The data set is described as follows: Antifungal activity against Candida albicans CMAH 0572 after 48 to 72 hrs by broth microdilution method. The format is functional.
The subject of the next data set is Saccharomyces cerevisiae. The data set is described as follows: Antimicrobial activity against Saccharomyces cerevisiae after 48 to 72 hrs by broth microdilution method. The format is functional.
Data set [8] relates to Candida albicans. The data set is described as follows: Antifungal activity against fluconazole-resistant Candida albicans CMAH 0520 after 48 to 72 hrs by broth microdilution method. The format is functional.
Data set [9] concerns Candida albicans. As to the kind of experiment: Antifungal activity against Candida albicans CMAH 0511 after 48 to 72 hrs by broth microdilution method. The format is functional.
A further data set deals with Cryptococcus neoformans. The data set is described as follows: Antifungal activity against Cryptococcus neoformans ATCC 90112 after 48 to 72 hrs by broth microdilution method. The format is functional.
In data set [10] the test system is Candida albicans. As to the kind of experiment: Antifungal activity against fluconazole-resistant Candida albicans CMAM 0597 after 48 to 72 hrs by broth microdilution method. The format is functional.
Data set [11] has as its system Candida albicans. As to the kind of experiment: Antifungal activity against Candida albicans CMAM 0577 after 48 to 72 hrs by broth microdilution method. The format is functional.
Data set [12] relates to Candida albicans. The data set is described as follows: Antifungal activity against Candida albicans CMAM 0592 after 48 to 72 hrs by broth microdilution method. The format is functional.
Data set [13] deals with Candida albicans. The data set is described as follows: Antifungal activity against Candida albicans CMAM 0594 after 48 to 72 hrs by broth microdilution method. The format is functional.
Data set [14] concerns Candida albicans. The data set is described as follows: Antifungal activity against Candida albicans CMAH 0501 after 48 to 72 hrs by broth microdilution method. The format is functional.
Data set [15] deals with Candida albicans. The data set is described as follows: Antifungal activity against Candida albicans CMAH 0503 after 48 to 72 hrs by broth microdilution method. The format is functional.
For data set [16], the system named is Candida albicans. The data set is described as follows: Antifungal activity against Candida albicans ATCC 10231 after 48 to 72 hrs by broth microdilution method. The format is functional.
The subject of the next data set is Rhodotorula glutinis. The data set is described as follows: Antimicrobial activity against Rhodotorula glutinis SYM 2209 after 48 to 72 hrs by broth microdilution method. The format is functional.
Data set [17] relates to Candida albicans. The data set is described as follows: Antifungal activity against Candida albicans CMAH 0527 after 48 to 72 hrs by broth microdilution method. The format is functional.

As for `NC[C@H]1O[C@H](O[C@H]2[C@H](O)[C@@H](O[C@H]3O[C@H](CO)[C@@H](O)[C@H](N)[C@H]3O)[C@H](N)C[C@@H]2N)[C@H](O)[C@@H](O)[C@@H]1O` [KANAMYCIN], the minimum bactericidal concentration (MBC) was 0.5 µg/mL (≈ 1.03 µM) in the data set on Staphylococcus aureus [1]; 4 µg/mL (≈ 8.26 µM) in the data set with Bacillus subtilis; over 128 µg/mL against Pseudomonas aeruginosa; 0.25 µg/mL (≈ 0.516 µM) against Klebsiella aerogenes; 0.25 µg/mL (≈ 0.516 µM) against Micrococcus luteus; 0.25 µg/mL (≈ 0.516 µM) in the data set on Escherichia coli. In the data set with Proteus vulgaris, this molecule returned a minimal bactericidal concentration (MBC) of 0.5 µg/mL (≈ 1.03 µM). Also, the MIC against Staphylococcus aureus [1] was 0.25 µg/mL (≈ 0.516 µM); with Bacillus subtilis it was 4 µg/mL (≈ 8.26 µM); in the data set on Pseudomonas aeruginosa, 64 µg/mL (≈ 132 µM); in the data set with Staphylococcus aureus [2], over 64 µg/mL; in the data set on Staphylococcus aureus [3], over 64 µg/mL; in the data set on Klebsiella aerogenes, 0.25 µg/mL (≈ 0.516 µM). Further, the minimal inhibitory concentration (MIC) was over 64 µg/mL against Staphylococcus aureus [4], 0.25 µg/mL (≈ 0.516 µM) against Micrococcus luteus, 0.25 µg/mL (≈ 0.516 µM) with Escherichia coli and 0.25 µg/mL (≈ 0.516 µM) against Proteus vulgaris.
`O=C(N[C@H](CO)[C@H](O)c1ccc([N+](=O)[O-])cc1)C(Cl)Cl` [CHLORAMPHENICOL]: the MBC came out at 1 µg/mL (≈ 3.09 µM) against Staphylococcus aureus [1]; 2 µg/mL (≈ 6.19 µM) against Bacillus subtilis; 64 µg/mL (≈ 198 µM) with Pseudomonas aeruginosa; 4 µg/mL (≈ 12.4 µM) against Staphylococcus aureus [2]; 2 µg/mL (≈ 6.19 µM) with Staphylococcus aureus [3]; 2 µg/mL (≈ 6.19 µM) in the data set on Klebsiella aerogenes. The minimal bactericidal concentration (MBC) in the data set on Staphylococcus aureus [4] turned out to be 2 µg/mL (≈ 6.19 µM); in the data set with Micrococcus luteus it was 4 µg/mL (≈ 12.4 µM); against Escherichia coli, 4 µg/mL (≈ 12.4 µM); with Proteus vulgaris, 0.25 µg/mL (≈ 0.774 µM). For the same molecule, the MIC with Staphylococcus aureus [1] was 1 µg/mL (≈ 3.09 µM); in the data set with Bacillus subtilis, 2 µg/mL (≈ 6.19 µM); with Pseudomonas aeruginosa, 32 µg/mL (≈ 99 µM); against Staphylococcus aureus [2], 2 µg/mL (≈ 6.19 µM); against Staphylococcus aureus [3], 1 µg/mL (≈ 3.09 µM); against Klebsiella aerogenes it was 2 µg/mL (≈ 6.19 µM). Besides, the minimal inhibitory concentration (MIC) amounted to 2 µg/mL (≈ 6.19 µM) in the data set on Staphylococcus aureus [4], 2 µg/mL (≈ 6.19 µM) in the data set with Micrococcus luteus, 2 µg/mL (≈ 6.19 µM) with Escherichia coli and 0.25 µg/mL (≈ 0.774 µM) in the data set with Proteus vulgaris. Further, in [5], the hemolysis was 14%.
Regarding `OC(Cn1cncn1)(Cn1cncn1)c1ccc(F)cc1F` [FLUCONAZOLE], the MIC was 64 µg/mL (≈ 209 µM) in the data set on Candida albicans [6]; over 64 µg/mL against Aspergillus sp.; 64 µg/mL (≈ 209 µM) in the data set with Candida albicans [7]; 4 µg/mL (≈ 13.1 µM) in the data set with Saccharomyces cerevisiae; over 64 µg/mL with Candida albicans [8]; 16 µg/mL (≈ 52.2 µM) against Candida albicans [9]. Further, the MIC in the data set on Cryptococcus neoformans was 16 µg/mL (≈ 52.2 µM); against Candida albicans [10], over 64 µg/mL; against Candida albicans [11], 64 µg/mL (≈ 209 µM); with Candida albicans [12], 32 µg/mL (≈ 104 µM); in the data set with Candida albicans [13], 64 µg/mL (≈ 209 µM); with Candida albicans [14], 16 µg/mL (≈ 52.2 µM). Moreover, the minimum inhibitory concentration (MIC) was 32 µg/mL (≈ 104 µM) with Candida albicans [15], 8 µg/mL (≈ 26.1 µM) against Candida albicans [16], over 64 µg/mL in the data set with Rhodotorula glutinis and 64 µg/mL (≈ 209 µM) with Candida albicans [17]. In the data set on Aspergillus sp., this molecule had an MIC50 of over 64 µg/mL. The molecule further yielded an MIC90 in the data set with Aspergillus sp. of over 64 µg/mL.

By MBC is commonly meant the smallest concentration meeting the test's criterion for killing. One may read the MIC as the least concentration at which growth counts as inhibited. A higher MIC goes with a need for much substance. For orientation: MIC50 means the lowest concentration that inhibits either 50% of growth or 50% of the strains tested, depending on the study. High values mean lower susceptibility, low ones higher susceptibility. The MIC90 is the lowest concentration that inhibits either 90% of growth or 90% of the strains tested, depending on the study. A high value points to lower susceptibility.
